Laboratory results reported in patent US10085449B2, “N-[1-((6-chloropyridin-3-yl)methyl)pyridin-2(1H)-ylidene]-2,2,2- trifluoroacetamide for control of agricultural/horticultural pests” (priority 2010, dated 2018).
Where two headings read alike, the source gives them in different places.

Experiments:
[1] = tested on: brown rice planthopper having a low susceptibility to insecticides; type: in vivo; conditions: 0.05 mg/seedling soil drenching
Description: (§1) Rice seedlings grown in pots were subjected to soil drenching treatment with solutions of the inventive compounds at a predetermined concentration prepared to 10% acetone/water. Three days after treatment, ten second-instar brown rice planthopper larvae having a low susceptibility to insecticides were released onto each seedling. The seedlings and insects were then held in an incubation chamber at 25° C. (16-hour period of light, 8-hour dark period). Three days after released, the numbers of live and dead insects were counted, and the mortality was calculated from the following formula. The test was carried out as two replications. Mortality (%)=[number of dead insects/(number of live insects+number of dead insects)]×100
The pests used in this test were insects that had been raised indoors for successive generations over a long period of time (susceptible line), and insects that had been raised indoors for successive generations after being collected (I) in 2007 within Kumamoto Prefecture and (II) in 2005 within Fukuoka Prefecture (field-collected lines).

[2] = tested on: small brown planthopper having a low susceptibility to insecticides; test: Small brown planthopper control test, pests having a low susceptibility to insecticides (soil drenching); type: in vivo; conditions: 0.01 mg/seedling soil drenching
Description: as §1, with “second-instar small” for “second-instar”, “brown” for “brown rice”
The pests used in this test were insects that had been raised indoors for successive generations over a long period of time (susceptible line), and insects that had been raised indoors for successive generations after being collected in 2006 within Kumamoto Prefecture (field-collected line).

[3] = tested on: house fly crude enzyme extract; test: In vitro metabolic test using house fly crude enzyme extract; type: in vitro ADME; conditions: house fly crude enzyme extract with NADP+ regenerating system, 25° C., 40 hours, LC/MS
Description: As mentioned in Pest Management Science, 59(3), 347-352 (2003) and the Journal of Pesticide Science, 29(2), 110-116 (2004), imidacloprid is known to be inactivated by incurring oxidative metabolism, which is thought to be one mechanism of acquiring resistance to this agent. The following experiment was carried out to confirm the effects in pests which have acquired such resistance.
An amount of 10 mL of a potassium phosphate buffer solution (pH 7.4, containing 1 mM EDTA) was added to adult house flies (0.645 g), and the flies were thoroughly homogenized in a Physcotron (Niti-On Medical and Physical Instruments Manufacturing Co.). The homogenate was then centrifuged at 10,000 g for 15 minutes. The resulting supernatant was additionally centrifuged at 100,000 g for 60 minutes, giving a precipitate. The precipitate was dissolved in 1 mL of a potassium phosphate buffer, and the resulting solution was used as the crude enzyme extract. The enzyme extraction operations were all carried out on ice or at 4° C.
The reagents were mixed in the following proportions within a 1.5 mL tube, and the reaction was effected at 25° C. for 40 hours. Following the reaction, 1 mL of acetone was added and the mixture was stirred, following which the precipitate that formed was centrifuged at 12,000 rpm for 5 minutes. […]

[4] = tested on: Haemaphysalis longicornis; type: in vivo; conditions: 10 ppm acetone solution (30 μL) dry film, larval ticks, 1 day after release
Description: Glass vials having a capacity of 4 mL were each filled with 30 μL of an acetone solution containing 200 ppm or 10 ppm of the respective compounds. These filled vials were placed on a shaker and air-dried while being spun, thereby forming dry films of the compounds on the inner walls of the vials. After the vials had been dried for at least 24 hours, ten larval ticks (Haemaphysalis longicornis) were released into each vial, following which the vials were capped. The vials were then left at rest in an incubation chamber at 25° C., 85% humidity and complete darkness. One day after released, the numbers of live and dead ticks were counted, and the mortality was calculated from the following formula.
This test was carried out as two replications. Mortality (%)=[number of dead ticks/(number of live ticks+number of dead ticks)]×100

O=[N+]([O-])NC1=NCCN1Cc1ccc(Cl)nc1 [imidacloprid]
Mortality ([1]; field-collected line (I) 2007 Kumamoto Prefecture): 40%
Mortality ([1]; field-collected line (II) 2005 Fukuoka Prefecture): 60%
Mortality ([1]; susceptible line): 100%
Mortality ([2]; field-collected line (2006 Kumamoto Prefecture)): 50%
Mortality ([2]; susceptible line): 100%
Sum of the surface area percentages for the metabolites [3]: 2.55%
Mortality [4]: 4%
